Measured values published in article PMC10819771 (Pharmaceuticals, 2023).

Key:
FBCL-2T = test: FRET-melting, FBCL-2T; format: binding; details: ligand 0.5 μM, DNA 0.2 μM, 10 mM KCl, 90 mM LiCl, pH 7.2
Procedure: (§1) FRET-melting experiments were conducted on a Stratagene MX3005P (Thermo Fisher Scientific, Illkirch-Graffenstaden, France) real-time PCR equipment in 96-well plates on the DNA sequences reported in Table 4. Experiments were performed in 10 mM lithium cacodylate buffer (pH 7.2) and either 10 mM KCl and 90 mM LiCl (FK-RAST, FBCL-2T, F21T, and FdxT) or 1 mM KCl and 99 mM LiCl (Fc-MYCT) concentrations, depending on the Tm of the G4s alone. The DNA concentration was 0.2 µM. […] Data are presented as an average of three independent measurements, each conducted in duplicate conditions (λexc = 492 nm, λem = 516 nm, T interval = 25–95 °C, ramp: 25 °C for 5 min, then 1 °C/min, measurements every 1 °C, 8× magnification of the fluorescence signal).

[1] = system: human telomeric sequence F21T; test: FRET-melting, F21T; format: binding; details: ligand 0.5 μM, DNA 0.2 μM, 10 mM KCl, 90 mM LiCl, pH 7.2
Procedure: as §1

[2] = system: FdxT (DNA, hairpin, hexaethylene glycol linker between 10 and 11) TATAGCTATATATAGCTATA; test: FRET melting; details: 10 mM K+, 90 mM Li+; 10 mM lithium cacodylate pH 7.2; 0.2 µM DNA, 0.5 µM compound
FdxT = test: FRET-melting, duplex control FdxT; format: binding; details: ligand 0.5 μM, DNA 0.2 μM, 10 mM KCl, 90 mM LiCl, pH 7.2, hairpin duplex
Procedure: as §1

FK-RAST = test: FRET-melting, FK-RAST; format: binding; details: ligand 0.5 μM, DNA 0.2 μM, 10 mM KCl, 90 mM LiCl, pH 7.2
Procedure: as §1

Fc-MYCT = test: FRET-melting, Fc-MYCT; format: binding; details: ligand 0.5 μM, DNA 0.2 μM, K+ conditions, pH 7.2
Procedure: as §1

[3] = system: F21T (DNA, G4) GGGTTAGGGTTAGGGTTAGGG; test: FRET melting; details: 10 mM K+, 90 mM Li+; 10 mM lithium cacodylate pH 7.2; 0.2 µM DNA, 0.5 µM compound

C[n+]1cc(NC(=O)c2ccc3ccc4ccc(C(=O)Nc5cc6ccccc6[n+](C)c5)nc4c3n2)cc2ccccc21 [PhenDC3, reference compound]
ΔT1/2 (°C) FBCL-2T (FBCL-2T): 13.1 ± 0.1 °C
ΔT1/2 (°C) F21T [1]: 21.2 ± 0.5 °C
ΔT1/2 [2]: -0.6 ± 0.1 °C
ΔT1/2 (°C) FdxT (FdxT): −0.6 ± 0.1 °C
ΔT1/2 (°C) FK-RAST (FK-RAST): 16.9 ± 0.4 °C
ΔT1/2 (°C) Fc-MYCT (Fc-MYCT): 11.5 ± 0.3 °C
ΔT1/2 [3]: 21.2 ± 0.5 °C
